The record followed here is patent US5430062A, “Stilbene derivatives as anticancer agents” (priority 1993, dated 1995).

Test [1] relates to tubulin. The test is described as follows: Inhibition of tubulin polymerization (turbidimetry). Format: biochemical, bovine.
Test [2] relates to MLM melanoma. The test is described as follows: MTT cytotoxicity assay, MLM. The conditions noted are these: […]. Background: Tetrazolium assays rely on reduction of a dye to a coloured formazan, in cell work by metabolically active cells.
For test [3], the system named is A-549 lung carcinoma. The test is described as follows: MTT cytotoxicity assay, A-549. As to conditions: Homo sapiens, A549, […].
In test [4] the test system is MCF-7 breast carcinoma. As to the kind of experiment: MTT cytotoxicity assay, MCF-7. The conditions noted are these: Homo sapiens, MCF7, […].
Test [5] concerns HT-29 colon adenocarcinoma. As to the kind of experiment: MTT cytotoxicity assay, HT-29. As to conditions: Homo sapiens, HT-29, […].
Test [6] has as its system SKMEL-5 melanoma. The test is described as follows: MTT cytotoxicity assay, SKMEL-5. The conditions noted are these: Homo sapiens, SK-MEL-5, […], read-out: Cytotoxicity ED50, SKMEL-5.
Where [7] appears, read: second series (Tables V-VII, IX), read-out: Inhibition of Tubulin Polymerization IC50 (±S.D.).
Where [8] appears, read: read-out: Cytotoxicity ED50, MLM.
The mark [9] stands for this setting: read-out: Cytotoxicity ED50, A-549.
The mark [10] stands for this setting: read-out: Cytotoxicity ED50, MCF-7.
[11] abbreviates: read-out: Cytotoxicity ED50, HT-29.
Setting [12] is: read-out: Cytotoxicity ED50, MLM, MLM, MTT, six days.
Setting [13] is: read-out: Cytotoxicity ED50, A-549, A-549, MTT, six days.
Setting [14] is: read-out: Cytotoxicity ED50, MCF-7, MCF-7, MTT, six days.
[15] abbreviates: read-out: Cytotoxicity ED50, HT-29, HT-29, MTT, six days.

Molecules are shown by their SMILES. Counter-ions that a name gives are not always drawn. Like-named read-outs stand apart in the source and are kept apart here.

As for `COC(=O)/C(=C/c1cccc(OC)c1)c1cc(OC)c(OC)c(OC)c1` [compound 24b, (E)-Methyl 3-(3-methoxyphenyl)-2-(3,4,5-trimethoxy-phenyl)-prop-2-enoate], the IC50 in test [1] (setting [7]) was greater than 40 µM; in test [2] (setting [8]), 15.5 µM; in test [3] (setting [9]), 1.3 µM; in test [4] (setting [10]) it was 1.3 µM; in test [5] (setting [11]), 0.7 µM; in test [6], 1.5 µM.

Take `COc1ccc(C(Cc2cc(OC)c(OC)c(OC)c2)C(=O)O)cc1` (stereo not drawn) [compound 33, 2-(4-Methoxyphenyl)-3-(3,4,5-trimethoxyphenyl)propionic acid]: the IC50 in test [1] (setting [7]) is greater than 40 µM; in test [2] (setting [8]), greater than 25 µM; in test [3] (setting [9]), 14.3 µM; in test [4] (setting [10]) it was greater than 25 µM; in test [5] (setting [11]) it was 9.4 µM; in test [6], 7.4 µM.

Turning to `COc1ccc(/C=C/c2cc(OC)c(OC)c(OC)c2)cc1` [compound 6a, (E)-1-(4-Methoxyphenyl)-2-(3,4,5-trimethoxyphenyl)ethene], the IC50 in test [1] (first series (Table VIII and text), 37° C., 20 min, read-out: Tubulin polymerization IC50 (±S.D.)) was greater than 50 µM; in test [2] (setting [12]), 2.07 µM; in test [3] (setting [13]), 1.18 µM; in test [4] (setting [14]) it was 1.05 µM; in test [5] (setting [15]), 1.82 µM; in test [6], 0.81 µM.

Consider `COc1ccc(NC(=O)c2cc(OC)c(OC)c(OC)c2)cc1` [11a, 3,4,5-Trimethoxy-N-(4-methoxyphenyl)benzamide], for which the “inhibition of tubulin polymerization (in words)” value in test [1] is reported as “lower inhibitory activity”. Besides, the IC50 in test [2] (setting [8]) is greater than 25 µM; in test [3] (setting [9]), 14.1 µM; in test [4] (setting [10]), 12.2 µM; in test [5] (setting [11]) it was 22.7 µM; in test [6], greater than 25 µM.

Regarding `COc1cc(/C=C\c2ccc(C(C)(C)C)cc2)cc(OC)c1OC` [compound 15g, (Z)-1-(4-t-Butylphenyl)-2-(3,4,5-trimethoxyphenyl)ethene], the IC50 is greater than 40 µM in test [1] (setting [7]); 4.32 µM in test [2] (setting [8]); 1.02 µM in test [3] (setting [9]); 1.57 µM in test [4] (setting [10]); 0.88 µM in test [5] (setting [11]); 0.21 µM in test [6].

Regarding `COc1ccc(/C=C\c2cc(OC)c(OC)c(OC)c2)cc1` [compound E, reference compound], in test [1] (Table X footnote b, different glutamate preparation, read-out: tubulin polymerization IC50, standard agents), the IC50 came to 1.2 ± 0.05 µM.

For the compound `COc1cc(/C=C/c2ccc(C(C)(C)C)cc2)cc(OC)c1OC` [16g, (E)-1-(4-t-Butylphenyl)-2-(3,4,5-trimethoxyphenyl)ethene], the IC50 in test [2] (setting [8]), in test [3] (setting [9]), in test [4] (setting [10]), in test [5] (setting [11]) and in test [6] was greater than 25 µM throughout.

As for `COc1cc(/C=C/c2ccc(OC)c(OC)c2OC)cc(OC)c1OC` [6t], the IC50 was 23.9 µM in test [2] (setting [8]); 12.5 µM in test [3] (setting [9]); 14.7 µM in test [4] (setting [10]); 10.3 µM in test [5] (setting [11]); 10.6 µM in test [6].

For `CCc1ccc(/C=C/c2cc(OC)c(OC)c(OC)c2)cc1` [16e, (E)-(4-Ethylphenyl)-2-(3,4,5-trimethoxyphenyl)ethene], the IC50 in test [2] (setting [8]) is 0.22 µM; in test [3] (setting [9]), 0.13 µM; in test [4] (setting [10]), 1.2 µM; in test [5] (setting [11]) it was 0.11 µM; in test [6], 0.17 µM.

For `COc1ccc(/C=C/c2cc(OC)c(OC)c(OC)c2)c(Cl)c1` [6e], the IC50 in test [2] (setting [12]), in test [3] (setting [13]), in test [4] (setting [14]), in test [5] (setting [15]) and in test [6] was greater than 25 µM in each case.

Take `COc1cc(/C=C/c2ccc(O[Si](C)(C)C(C)(C)C)cc2)cc(OC)c1OC` [6m, (E)-1-[(4-t-Butyldimethylsilyloxy)phenyl]-2-(3,4,5-trimethoxyphenyl)ethene]: the IC50 in test [2] (setting [8]), in test [3] (setting [9]), in test [4] (setting [10]), in test [5] (setting [11]) and in test [6] was greater than 25 µM in each case.

With `COc1cc(NC(=O)c2cc(OC)c(OC)c(OC)c2)cc(OC)c1OC` [11f], the IC50 in test [2] (setting [8]), in test [3] (setting [9]), in test [4] (setting [10]), in test [5] (setting [11]) and in test [6] was greater than 25 µM each time.

For `CCCc1ccc(NCc2cc(OC)c(OC)c(OC)c2)cc1` [110g, 4-n-Propyl-N-(3,4,5-trimethoxybenzyl)aniline Hydrochloride], the IC50 in test [1] (Table X, different glutamate preparation (1M monosodium glutamate and GTP), read-out: inhibn of tubulin polymn IC50 (±SD)) is greater than 40 µM.

`COc1cc(/C=C/c2cc(OC)c(OC)c(OC)c2)cc(OC)c1OC` [6u]: the IC50 in test [2] (setting [8]), in test [3] (setting [9]), in test [4] (setting [10]), in test [5] (setting [11]) and in test [6] was greater than 25 µM throughout.

For `COc1cc(CCc2cc(OC)c(OC)c(OC)c2)cc(OC)c1OC` [8u], the IC50 in test [2] (setting [8]), in test [3] (setting [9]), in test [4] (setting [10]), in test [5] (setting [11]) and in test [6] was greater than 25 µM throughout.

Consider `COc1cccc2c1C(=O)c1c(O)c3c(c(O)c1C2=O)C[C@@](O)(C(=O)CO)C[C@@H]3O[C@H]1C[C@H](N)[C@H](O)[C@H](C)O1` [Adriamycin, reference compound], for which the IC50 came to 0.13 µM in test [2] (setting [8]); 0.029 µM in test [3] (setting [9]); 0.031 µM in test [4] (setting [10]); 0.055 µM in test [5] (setting [11]); 0.032 µM in test [6].

Turning to `COc1cc(/C=C/c2ccc(OC)c(OC)c2)cc(OC)c1` [6y], the IC50 in test [2] (setting [8]), in test [3] (setting [9]), in test [4] (setting [10]), in test [5] (setting [11]) and in test [6] was greater than 25 µM in each case.

As for `COc1cc(CCc2ccncc2)cc(OC)c1OC` [8i, 1-(4-Pyridyl)-2-(3,4,5-trimethoxyphenyl)ethane], the IC50 in test [2] (setting [8]), in test [3] (setting [9]), in test [4] (setting [10]), in test [5] (setting [11]) and in test [6] was greater than 25 µM in each case.

With `COc1ccc(C(=O)Nc2cc(OC)c(OC)c(OC)c2)cc1` [11c, 4-Methoxy-N-(3,4,5-trimethoxyphenyl)benzamide], the IC50 in test [2] (setting [8]), in test [3] (setting [9]), in test [4] (setting [10]), in test [5] (setting [11]) and in test [6] was greater than 25 µM in each case.

In the case of `CCCOc1ccc(/C=C/c2cc(OC)c(OC)c(OC)c2)cc1` [16b, (E)-1-(4-n-Propoxyphenyl)-2-(3,4,5-trimethoxyphenyl)ethene], the IC50 in test [2] (setting [8]) was greater than 25 µM; in test [3] (setting [9]), 9.2 µM; in test [4] (setting [10]) it was 12.5 µM; in test [5] (setting [11]), greater than 25 µM; in test [6], greater than 25 µM.

With `COc1cc(CCc2ccc(OC)c(OC)c2OC)cc(OC)c1OC` [8t], the IC50 in test [2] (setting [8]), in test [3] (setting [9]), in test [4] (setting [10]), in test [5] (setting [11]) and in test [6] was greater than 25 µM in each case.

With `COc1cc(OC)c(OC)cc1/C=C/c1ccccc1` [6w], the IC50 is greater than 25 µM in test [2] (setting [8]); greater than 25 µM in test [3] (setting [9]); 8.5 µM in test [4] (setting [10]); greater than 25 µM in test [5] (setting [11]); greater than 25 µM in test [6].

As for `COc1ccc(/C=C\c2cc(OC)c(OCc3ccccc3)c(OC)c2)cc1` [15j, (Z)-1-[4-(Benzyloxy)-3,5-(dimethoxy)phenyl]-2-(4-methoxyphenyl)ethene], in test [1] (setting [7]), the IC50 was greater than 40 µM.

As to `COc1ccc(C(=O)Nc2cc(OC)c(OC)c(OC)c2)cc1OC` [11b], the IC50 in test [2] (setting [8]), in test [3] (setting [9]), in test [4] (setting [10]), in test [5] (setting [11]) and in test [6] was greater than 25 µM throughout.

In the case of `COc1cc(CCc2cccnc2)cc(OC)c1OC` [8j, 1-(3-Pyridyl)-2-(3,4,5-trimethoxyphenyl)ethane], the IC50 in test [2] (setting [8]) was greater than 25 µM; in test [3] (setting [9]), 12.2 µM; in test [4] (setting [10]), greater than 25 µM; in test [5] (setting [11]), greater than 25 µM; in test [6] it was greater than 25 µM.

As for `COc1cccc(/C=C/c2cc(OC)c(OC)c(OC)c2)c1` [6b], the IC50 in test [2] (setting [12]) was greater than 25 µM; in test [3] (setting [13]), 9.8 µM; in test [4] (setting [14]), 12.2 µM; in test [5] (setting [15]), 7.3 µM; in test [6], 10.5 µM.

Regarding `COc1cc(CCc2ccc(NC(C)=O)cc2)cc(OC)c1OC` [compound 8m, 1-(4-Acetamidophenyl)-2-(3,4,5-trimethoxyphenyl)ethane], the IC50 in test [2] (setting [8]), in test [3] (setting [9]), in test [4] (setting [10]), in test [5] (setting [11]) and in test [6] was greater than 25 µM throughout.

In the case of `COc1cc(/C=C/c2ccc(C)cc2)cc(OC)c1OC` [16d, (E)-(4-Methylphenyl)-2-(3,4,5-trimethoxyphenyl)ethene], the IC50 in test [2] (setting [8]) was 6.3 µM; in test [3] (setting [9]) it was 1.1 µM; in test [4] (setting [10]) it was 1.9 µM; in test [5] (setting [11]), 0.9 µM; in test [6], 0.8 µM.

Consider `COc1ccc(CCc2ccccc2)c(OC)c1OC` [8r], for which the IC50 in test [2] (setting [8]), in test [3] (setting [9]), in test [4] (setting [10]), in test [5] (setting [11]) and in test [6] was greater than 25 µM throughout.
